Measurements as given in patent publication US20220151993A1, “TREATMENT OF ANXIETY AND DEPRESSION” (NEW YORK UNIVERSITY, priority 2020, published 2022).

How the values were obtained:
[1] = system: patients with cancer-related psychiatric and existential distress; assay: Hospital Anxiety and Depression Scale (HADS), long-term follow-up of psilocybin-assisted psychotherapy trial; type: in vivo, human; conditions: for HADS Depression / HADS Anxiety / HADS Total: single 0.3 mg/kg dose with psychotherapy; for HADS Depression: baseline 5.88; for HADS Anxiety: baseline 10.56; for HADS Total: baseline 16.45
Experimental: (§1) The present example assesses the long-term effects of a single dose of psilocybin (0.3 mg/kg) in conjunction with psychotherapy in patients with cancer-related psychiatric and existential distress.
(§2) 29 participants were randomly assigned to one of two groups: psilocybin (0.3 mg/kg) on the first medication session followed by niacin (250 mg) on the second session (i.e. psilocybin-first group), or niacin (250 mg) on the first medication session followed by psilocybin (0.3 mg/kg) on the second session (i.e. niacin-first group). Psilocybin and niacin were administered in identically appearing gelatin capsules.
(§3) Participants received three 2-hour preparatory psychotherapy sessions in order to review the purpose and intention of participation in the study, treatment goals, and structure of the treatment sessions. Medications were administered in 8-hour treatment sessions which included a discussion of the participant's subjective experience with the treatment team to consolidate the memory of the experience and to begin the process of post-integrative psychotherapy. Participants also received three 2-hour post-medication integration sessions (repeated after the second dosing session) to further consolidate the memory of the experience and to continue the process of psychological integration. All psychotherapy treatment sessions were delivered by a dyadic therapy team trained in a blend of psychotherapies with an evidence base to support their use in cancer patients (drawing upon principles of palliative care therapy, existential psychotherapy, cognitive-behavioural therapy, psychoanalysis therapy, and transpersonal psychology) and were taught about the safety and clinical pharmacology of psilocybin. Each therapy dyad underwent six confidential one-to-one sessions to build their alliance and exchange ideas about psychedelic therapy. The trial employed a crossover design at seven weeks following the first drug administration, with an outcome assessment at 6.5 months (26 weeks) following the second drug administration (i.e. after the crossover).
(§4) Two long-term follow ups (LTFUs) were carried out to assess the continued effect of psilocybin. Of the original 29 participants, all 16 participants who were not deceased at the time of LTFU were contacted (the remaining 13 participants were deceased). Of the 16 participants who were contacted, 15 agreed to participate in the LTFU and completed measures through a secure online portal. One participant died (from cancer-related complications) after completing the first LTFU and prior to the second LTFU, leaving us with 14 participants at the second LTFU. The first and second LTFUs occurred on average 3.2 years (range 2.3-4.5 years) and 4.5 years (range 3.5-5.5 years) following the participants' psilocybin dosing date, respectively.
Primary outcomes (anxiety and depression) were measured according to the following methods: • Hospital Anxiety and Depression Scale (HADS) (Zigmond and Snaith, 1983)—this is widely used in hospital settings to screen for the severity of anxiety and depression. It contains 14 questions rated on a four-point scale (total score (HAD-T) ranges from […]). Subscale scores can be calculated for depression (HADS-D) and anxiety (HADS-A). […] The HADS has shown good reliability (Cronbach's a ranging from 0.80-0.93) and has been well validated (Herrmann, 1997). • Beck Depression Inventory-II (BDI-II) (Beck et al., 1988)—a widely used self-report screening measure for depression. The BDI-II consists of 21 questions about depressive symptoms experienced over the past two weeks rated on a […] scale (total score ranges from 0-63). Scores above 12 indicate possible clinical depression. This measure has shown good reliability (internal consistency of 0.90) and factorial validity (Storch et al. 2004). • Spielberger State-Trait Anxiety Inventory (STAI) (Spielberger, 1983)—a well-known measure of anxiety consisting of scales for state (STAI-S) and trait-level anxiety (STAI-T). […]

[2] = system: patients with cancer-related psychiatric and existential distress; assay: Demoralization Scale (DS), long-term follow-up; type: in vivo, human; conditions: single 0.3 mg/kg dose with psychotherapy, baseline 31.88, p < 0.001 vs baseline
Experimental: as §1, §2
as §3, with “Each therapy dyad underwent six confidential one-to-one sessions to build their alliance and exchange ideas about psychedelic therapy. The trial employed a crossover design at seven weeks following the first drug administration, with an outcome assessment at 6.5 months (26 weeks) following the second drug administration (i.e. after the crossover).” left out
(§5) Cancer-related existential distress (demoralization, hopelessness, attitudes and effects associated with disease progression and death) was assessed using the following methods: • The Death Anxiety Scale (DAS) (Templer, 1970)—a 15-item measure that has been used most frequently to assess death anxiety. Items are scored “true” and “false” and then scored as one and zero, respectively. […]

[3] = system: patients with cancer-related psychiatric and existential distress; assay: Hopelessness Assessment in Illness (HAI), long-term follow-up; type: in vivo, human; conditions: for Hopelessness: single 0.3 mg/kg dose with psychotherapy, baseline 5.75, p < 0.001 vs baseline
Experimental: as §1, §2, §3
Two long-term follow ups (LTFUs) were carried out to assess the continued effect of psilocybin. Of the original 29 participants, all 16 participants who were not deceased at the time of LTFU were contacted (the remaining 13 participants were deceased). […]
as §5

[4] = system: patients with cancer-related psychiatric and existential distress; assay: Death Anxiety Scale (DAS), long-term follow-up; type: in vivo, human; conditions: single 0.3 mg/kg dose with psychotherapy, baseline 8.06
Experimental: as §1, §2
as §3, with “Each therapy dyad underwent six confidential one-to-one sessions to build their alliance and exchange ideas about psychedelic therapy. The trial employed a crossover design at seven weeks following the first drug administration, with an outcome assessment at 6.5 months (26 weeks) following the second drug administration (i.e. after the crossover).” left out
as §5

[5] = system: patients with cancer-related psychiatric and existential distress; assay: Persisting Effects Questionnaire at second long-term follow-up; type: in vivo, human; conditions: second LTFU (4.5 years, n=14)
Experimental: as §2, §3
as §4, with “The first and second LTFUs occurred on average 3.2 years (range 2.3-4.5 years) and 4.5 years (range 3.5-5.5 years) following the participants' psilocybin dosing date, respectively.” left out
Persisting effects of psilocybin were assessed using the Persisting Effects Questionnaire (Griffiths et al., 2006, 2008) assesses self-rated changes in one's attitude, mood, behavior, and experience of spirituality. […]

[6] = system: patients with cancer-related psychiatric and existential distress; assay: Lasting negative or adverse effects reported during long-term follow-up; type: in vivo, human; conditions: LTFU period; 13 of 14 participants provided information
Experimental: as §2
Participants received three 2-hour preparatory psychotherapy sessions in order to review the purpose and intention of participation in the study, treatment goals, and structure of the treatment sessions. Medications were administered in 8-hour treatment sessions which included a discussion of the participant's subjective experience with the treatment team to consolidate the memory of the experience and to begin the process of post-integrative psychotherapy. Participants also received three 2-hour post-medication integration sessions (repeated after the second dosing session) to further consolidate the memory of the experience and to continue the process of psychological integration. […]

[7] = system: patients with advanced-stage cancer; conditions: single moderate dose 0.2 mg/kg; cited from earlier work
[8] = Spearman, second LTFU subtracted from two-weeks post-psilocybin dose scores, p<0.01
[9] = mean score at 3.2 years, p < 0.001 vs baseline
[10] = mean score at 4.5 years, p < 0.001 vs baseline
[11] = mean score at 6.5-8 months, p < 0.001 vs baseline

For CN(C)CCc1c[nH]c2cccc(OP(=O)(O)O)c12 [psilocybin, [3-(2-dimethylaminoethyl)-1H-indol-4-yl] dihydrogen phosphate], the “correlation (r) of length of time between psilocybin session and follow-up with HAD-D depression change score” value [1, 8] was 0.70, the “HADS Depression” value [1, 9] was 2.25 and the “HADS Anxiety” value [1, 9] was 5.50. The “HADS Total” value [1, 9] was 7.13, the “HADS Depression” value ([1]; mean score at 4.5 years, p < 0.01 vs baseline) was 2.30 and the “HADS Anxiety” value [1, 10] was 4.99. The “HADS Total” value [1, 10] was 7.34, the “HADS Depression” value [1, 11] was 1.75 and the “HADS Anxiety” value [1, 11] was 2.81. For the same compound, the “HADS Total” value [1, 11] was 4.38, the “participants with clinically significant reductions in global psychological distress on the HADS-T” value ([1]; second LTFU point (4.5 years, n=14), 50% or greater reduction relative to baseline) was “Seventy-one” and the “participants with clinically significant anxiolytic response on the HADS-A” value ([1]; second LTFU point (4.5 years, n=14), response = 50% or greater reduction relative to baseline) was 57%. The Demoralization ([2]; mean score at 3.2 years) was 13.29, the Demoralization ([2]; mean score at 4.5 years) was 14.32 and the Demoralization ([2]; mean score at 6.5-8 months) was 16.84. The “correlation (r) of length of time between psilocybin session and follow-up with HAI hopelessness change score” value [3, 8] was 0.69, the Hopelessness ([3]; mean score at 3.2 years) was 2.29 and the Hopelessness ([3]; mean score at 4.5 years) was 1.65. For the same compound, the Hopelessness ([3]; mean score at 6.5-8 months) was 1.65, the Death anxiety ([4]; mean score at 3.2 years, p < 0.01 vs baseline) was 5.68 and the Death anxiety ([4]; mean score at 4.5 years, p < 0.05 vs baseline) was 5.75. For the same compound, the Death anxiety ([4]; mean score at 6.5-8 months, p < 0.01 vs baseline) was 6.09, the “participants appraising the psilocybin session as increasing life satisfaction or wellbeing” value [5] was 86% and the “participants rating the psilocybin experience the single or top-five most personally meaningful experience(s) of their lives” value [5] was “Seventy-one”. The “participants rating the psilocybin experience the single or top-five most spiritually significant experience(s) of their lives” value [5] was “ninety-six”, the “volunteers reporting moderate, strong or extreme positive behavioral change attributed to the psilocybin experience” value [5] was 100% and the “lasting negative or adverse effects from the psilocybin-assisted therapy experiences” value [6] was “None of the participants reported lasting negative or adverse effects”. For the same compound, the adverse events [7] was “no clinically significant adverse events”, the “time after treatment up to which levels of anxiety were reduced” value [7] was “up to 3 months” and the “time after treatment up to which levels of depression were reduced” value [7] was “up to 6 months”.
